According to patent US20150087587A1, “Process for the Synchronization of Ovulation for Timed Breeding Without Heat Detection” (priority 2003, published 2015):

Tests used:
Format in all cases: in vivo, swine
mature postpartum sows = test: Intravulvar injection at estrus detection with AI in mature postpartum sows (Example 2); settings: 50 mcg deslorelin in SAIB intravulvar at estrus detection
Description: Sows were assigned randomly in blocks of two to either control or to be injected intravulvar with 50 mcg of deslorelin in SAIB at the time of estrus detection for sows first detected in estrus in the a.m. and 12 hours later for those first detected in estrus in the p.m. Treated animals were bred AI upon detected estrus and again 24 hours later if still in estrus. Controls received a saline injection on first detected estrus behavior estrus detection and were bred according to the farm's normal procedures.

postpartum sows [1] = test: Timed injection 96 hours post-weaning and single timed insemination without estrus detection; pregnancy, embryos and CL (Example 3); settings: 50 mcg deslorelin in SAIB at 96 hours post-weaning
Description: Approximately 170 postpartum sows were randomly divided into two equal groups comprised of controls and treated. Following weaning, the controls were detected for estrus and bred following the normal standard operating procedures for the farms on which they resided. The treated sows received a 50 mcg dose of deslorelin in SAIB at 96 hours post-weaning and were bred with a single insemination 28+/−2 hours later with no regard to estrus detection. The sows were examined for pregnancy by ultrasound at 21 days and slaughtered around 28 days post breeding, The entire reproductive tract was removed and corpora lutea and embryos were counted.

postpartum sows [2] = test: Litter size and pregnancy rate after treatment in postpartum sows at three farm sites (Example 4); settings: regardless of estrus detection
From the text: Postpartum sows were randomly distributed into three different groups comprised of Controls, Treatment 1, and Treatment 2, with the exception of Site 3, which was divided into two groups, Control and Treatment 2. Control sows were detected for estrus following weaning, and bred following the normal standard operating procedures for the farms on which they resided. Treatment 1 sows were detected for estrus following weaning, and received a 50 mcg dose of deslorelin in the morning when standing and were bred by AI 4 hours later and again at 24+/−2 hours later. Treatment 2 sows received a 50 mcg dose of deslorelin in SAIB at 96 or 120 hours post-weaning and were bred with a single insemination 28+/−2 hours later with no regard to estrus detection. […]

## CCNC(=O)[C@@H]1CCCN1C(=O)[C@H](CCCN=C(N)N)NC(=O)[C@H](CC(C)C)NC(=O)[C@@H](Cc1c[nH]c2ccccc12)NC(=O)[C@H](Cc1ccc(O)cc1)NC(=O)[C@H](CO)NC(=O)[C@H](Cc1c[nH]c2ccccc12)NC(=O)[C@H](Cc1cnc[nH]1)NC(=O)[C@@H]1CCC(=O)N1 [Deslorelin, deslorelin]
Mature postpartum sows
  Pregnancy rates, Control versus Treated (in words): no significant difference
Postpartum sows [1]; single insemination
  Embryo Survival: 64%
Postpartum sows [1]; single insemination 28+/-2 hours later, no estrus detection
  Pregnancy Rate: 71%
Postpartum sows [1]; single insemination 28+/-2 hours later, 84 in group
  Sows Pregnant: 60
Postpartum sows [2]
  Litter sizes (in words): normal litter sizes
